Measured values published in BigSolDB 2.1.

CCOc1ccc2ccccc2c1C(=O)O
solubility (mole fraction)
Details	278.15 K	283.15 K	288.15 K	293.15 K	298.15 K	303.15 K	308.15 K	313.15 K	318.15 K	323.15 K
in ethanol	0.0268	0.0325	0.0392	0.0469	0.0565	0.0688	0.0836	0.101	0.119	0.136
in methanol	0.0304	0.037	0.0443	0.0552	0.0671	0.0821	0.0951	0.114	0.134	0.151
in n-propanol	0.0212	0.0236	0.0283	0.0345	0.0424	0.0511	0.0632	0.0779	0.092	0.114
